According to a melting point compilation (Tetko et al.; mined from patent text by program, amines drawn as free bases though some values may be those of a salt):

First: CC(C)C(=O)CCC(C)C1CCC2C3C=CC4=CC(=O)C5OC5C4(C)C3CCC12C (configuration not stated)
Second: COC(=O)C#CC1CCC2C3CCC4CC(O)CCC4(C)C3CCC12C (configuration not stated)
The melting point of the first is higher: 150 to 152 °C for the first, 135 to 137 °C for the second.

First: O=C(Oc1ccccc1)N1c2ncccc2OCC1OP(=O)(Oc1ccccc1)Oc1ccccc1 (configuration not stated)
Second: O=C1N(C(c2ccccc2)c2ccccc2)c2ccccc2C12COc1ccc(F)cc12 (configuration not stated)
The melting point of the first is lower: 82 °C for the first, 182 to 184 °C for the second.

Compared with `O=C(NCCCO)OCc1ccccc1`, `Cc1nc(N)nc(OCc2ccccc2)c1[N+](=O)[O-]` is higher in melting point: 47 to 49 °C for the first, 159 to 160 °C for the second.

Compared with `c1ccc(OCc2ccc3ccccc3n2)cc1`, `Cc1c(C=NO)c2ccccc2n1-c1ccc(OCc2ccccc2)c(F)c1` is higher in melting point: 79.5 to 80.5 °C for the first, 167 to 168 °C for the second.

First: CCOC(=O)Cc1ccc(NC(=O)C(COS(C)(=O)=O)NS(=O)(=O)c2ccc(F)cc2)cc1 (racemic)
Second: CC(=O)NC(=O)OC[C@]1(C)S[C@@H]2[C@H](NC(=O)Cc3ccccc3)C(=O)N2[C@H]1C(=O)OCc1ccc([N+](=O)[O-])cc1
The melting point of the first is lower: 81 to 82 °C for the first, 83 to 85 °C for the second.

First: COC(=O)[C@H](Cc1cc(Cl)c(OCCCNC(=O)OC(C)(C)C)c(Cl)c1)NC(=O)C(F)(F)F
Second: COC(=O)N[C@H](C(=O)N[C@@H](Cc1ccccc1)[C@@H](O)CN(Cc1ccc(-c2cncs2)cc1)NC(=O)OC(C)(C)C)C(C)C
The melting point of the first is lower: 90 to 91.5 °C for the first, 114 to 115 °C for the second.

First: CS(=O)(=O)N(Cc1cccnc1)c1ccc(F)cc1F
Second: O=[N+]([O-])c1ccc(-c2nc3ccc(F)cc3s2)cc1
The melting point of the first is lower: 132 to 135 °C for the first, 201 to 202 °C for the second.

Compared with `CC1=CC(c2ccccc2C(F)(F)F)C([N+](=O)[O-])=C(C)N1` (configuration not stated), `Cc1cccc(Cl)c1NC(=O)n1nc(Oc2cccc(C(F)(F)F)c2)cc1C` is lower in melting point: 201 °C for the first, 55 to 58 °C for the second.

First: O=C(O)C1CCCc2c(noc2-c2ccc(Cl)cc2)C1 (configuration not stated)
Second: O=c1[nH]c2ncc(-c3ccc(O)cc3)nc2n1CC1CCCCC1
The melting point of the first is lower: 231 to 233 °C for the first, 302 to 303 °C for the second.

Compared with `c1cc(NCC2CCCO2)c2cc3c(cc2n1)OCO3` (configuration not stated), `O=Cc1ccc(Oc2ccc3c(c2)OCO3)cc1` is lower in melting point: 276 to 278 °C for the first, 67 to 70 °C for the second.

First: CCC(C)(O)C#Cc1ccc(C(CC2CCCC2)C(=O)O)cc1 (configuration not stated)
Second: CCN1CCC(c2ccccc2)=C(C(=O)NC)C1
The melting point of the first is lower: 91 to 94 °C for the first, 103 to 105 °C for the second.

Compared with `CCOC(=O)NNC(=O)NCC(=O)OC`, `COC(=O)c1cc(OC)c(C(=O)OC)cc1OC` is higher in melting point: 116 to 121 °C for the first, 141 to 143 °C for the second.

First: Cc1ncsc1CCSc1ccnc(CSc2nc3ccccc3[nH]2)c1C
Second: CC(C)Cn1c(C(O)c2ccccc2)nc2c(N)nc3ccccc3c21 (configuration not stated)
The melting point of the first is higher: 150 to 152 °C for the first, 125 to 140 °C for the second.

First: O=C(O)c1ccc(CF)cc1
Second: O=C(O)c1ccc(OCCCCCCO)cc1F
The melting point of the first is higher: 192 to 194 °C for the first, 98 to 99 °C for the second.

Compared with `CCCN(c1nc(-c2ccc(OC)cc2Cl)c(C)s1)c1cc([N+](=O)[O-])ccc1OC`, `CCOC(=O)c1c(C)nn2c(-c3ccc(Cl)cc3Cl)c(C)ccc12` is higher in melting point: 97 °C for the first, 120 to 124 °C for the second.

First: Clc1cnc2c(NCc3ccccc3)nc(Cl)nc2c1
Second: COc1nnc(-c2ccccc2)cc1C
The melting point of the first is higher: 169 to 170 °C for the first, 62 to 64 °C for the second.

First: CCCn1nc2c(N)nc3c(c2c1CCCc1cc(C)no1)CCCC3
Second: CCCCc1nc2c(N)nc3ccccc3c2n1CCCCS(=O)(=O)c1ccccc1
The melting point of the first is lower: 144 to 145 °C for the first, 179 to 180 °C for the second.

`O=C(O)c1ccccc1NCCCN1c2ccccc2CCc2ccc(Cl)cc21` and `N#Cc1c[nH]cc1-c1ccc(Cl)cc1C(=O)c1ccccc1F` cannot be ordered by melting point: 176 to 178 °C for the first, 177 to 179 °C for the second.

Compared with `CCCc1nc(SC(F)F)c(C(=O)O)n1Cc1ccc(-c2ccccc2S(=O)(=O)NC(=O)NCc2cccc3ccccc23)cc1`, `O=C(O)c1ccc(CNC(=O)C2Cc3ccccc3N2S(=O)(=O)c2ccc(-c3cccc(C(F)(F)F)c3)cc2)cc1` (configuration not stated) is lower in melting point: 144 °C for the first, 120 °C for the second.

First: O=C1c2ccccc2C(=O)N1CCSc1nccc(NC(=S)NCC(F)(F)F)n1
Second: O=C1c2ccccc2C(=O)N1CCON=C1c2ccccc2-n2cccc21
The melting point of the first is higher: 238 to 241 °C for the first, 195 °C for the second.

First: CN1CC(CCCl)Oc2cc3ccccc3nc2C1=S (configuration not stated)
Second: Cc1nc(C)n2c1CN=C(c1ccccc1F)c1cc(Cl)ccc1-2
The melting point of the first is lower: 114 to 116 °C for the first, 178 to 180 °C for the second.

Compared with `CCCCCCCCCCCCC(=O)CC#CCCCC(=O)O`, `COC(CCCNC(=O)CCCCC(=O)NCCCC(OC)OC)OC` is lower in melting point: 79 to 80.5 °C for the first, 73 to 75 °C for the second.

First: CCN1C(=O)CCCc2c1ccc(Nc1ncc(Cl)c(Nc3ccccc3-n3cccn3)n1)c2OC
Second: Cc1cccc(C)c1NC(=O)Nc1sc2cc3c(cc2c1-c1ccccc1Cl)CCC3
The melting point of the first is lower: 183 to 185 °C for the first, 236 to 237 °C for the second.

Compared with `CC(=O)OC(c1nc(C)c(C)s1)(c1nc(C)c(C)s1)C(F)(F)F`, `COc1ccc(-c2cc(Nc3c(C)cc(C)cc3C)nc(C)n2)cc1OC` is higher in melting point: 163 to 164 °C for the first, 168 to 170 °C for the second.

First: CC(=O)CC(C)c1ccc(-c2ccccc2F)cc1 (configuration not stated)
Second: O=NCNC1=Nc2ccsc2C(c2ccccc2)=NC1
The melting point of the first is lower: 60 to 61 °C for the first, 156 to 159 °C for the second.

Compared with `CCOCc1nc2c(N)nc3ccccc3c2n1CCCC(C)N(OC)S(C)(=O)=O` (configuration not stated), `COCCc1nc2c(N)nc3ccccc3c2n1CCCCNC(=O)c1ccc2ccccc2n1` is lower in melting point: 146 to 148 °C for the first, 78.1 to 79.9 °C for the second.

Compared with `CCOC(=O)c1ncn2c1CNC(=O)c1ccccc1-2`, `COc1ccc(-c2nn(CCCCCCBr)c(=O)c3ccccc23)cc1OC` is lower in melting point: 248 to 250 °C for the first, 83 to 84 °C for the second.

Compared with `Cc1nc(Cl)c2c(c1O)COC2(c1ccccc1)c1ccccc1`, `c1ccc(N2CCN(c3nsc4ccccc34)CC2)cc1` is higher in melting point: 240 °C for the first, 260 to 262 °C for the second.

First: CCn1nc(O)nc1Cl
Second: OCC1OC(n2cnc3c(Cl)cc(Cl)nc32)C(O)C1O (configuration not stated)
The melting point of the first is lower: 108 to 110 °C for the first, 148 to 150 °C for the second.

First: COC(=O)c1cn2c3c(c(N4CCCC4)c(F)cc3c1=O)CCN2C
Second: CS(=O)(=O)c1ccc(-c2cnn(CC(F)(F)F)c(=O)c2N2CCCCC2)cc1
The melting point of the first is higher: 203 to 206 °C for the first, 160 to 161 °C for the second.

First: Cc1cc(C=NN2CCNC2=O)no1
Second: Cc1cc(O)c2c(c1C)C(=O)CC2
The melting point of the first is higher: 195 to 197 °C for the first, 171 to 173 °C for the second.

First: Cn1cc(-c2cccc(Br)c2)c(=O)c(-c2cccc(C(F)(F)F)c2)c1
Second: C1=C(c2cccc(CNCCOc3cccc4c3OCC4)c2)CCC1
The melting point of the first is higher: 151 to 153 °C for the first, 118 °C for the second.

Compared with `CCOC(=O)N1Cc2cc(NN=C(C)C)nnc2C(C)C1` (configuration not stated), `CSc1ccc(-c2ccc(C(=O)Nc3ccc4cc(CN5CCCC5)cnc4c3C)c(F)c2)cc1` is higher in melting point: 140 to 142 °C for the first, 189 to 190 °C for the second.

First: COc1ccc(NC(=O)c2ccc(COc3ccc4c(c3)CCC(CCN3CCCCC3)C4)cc2)cc1 (configuration not stated)
Second: Cc1c(C(=O)Nc2ccc(N3CCC(N4CCOCC4)CC3)c(C#N)c2)cnn1-c1ccc(Cl)c(Cl)c1
The melting point of the first is lower: 193 to 196 °C for the first, 242 °C for the second.

Compared with `NC(=O)c1ccc(F)c2c1CC(N(CCCc1c[nH]c3ccc(F)cc13)CC1CC1)CO2` (configuration not stated), `Oc1ccc(NCCCCCCBr)cc1` is higher in melting point: 121 °C for the first, 123 to 126 °C for the second.

First: C#CC(O)c1csc(C)n1 (configuration not stated)
Second: O=c1oc(/C=C/c2ccc(OC(F)F)c(OC(F)F)c2)nc2ccccc12
The melting point of the first is lower: 94 °C for the first, 113 to 115 °C for the second.
